pIC50: −log10 of the molar value.
Target: T1, native MDH (Sus scrofa, UniProt P00346)
T1 construct: soluble pig heart MDH from Roche, product #10127248001; purchased Roche 10127248001; host or cells: pig heart
T1 sequence (P00346 25-338): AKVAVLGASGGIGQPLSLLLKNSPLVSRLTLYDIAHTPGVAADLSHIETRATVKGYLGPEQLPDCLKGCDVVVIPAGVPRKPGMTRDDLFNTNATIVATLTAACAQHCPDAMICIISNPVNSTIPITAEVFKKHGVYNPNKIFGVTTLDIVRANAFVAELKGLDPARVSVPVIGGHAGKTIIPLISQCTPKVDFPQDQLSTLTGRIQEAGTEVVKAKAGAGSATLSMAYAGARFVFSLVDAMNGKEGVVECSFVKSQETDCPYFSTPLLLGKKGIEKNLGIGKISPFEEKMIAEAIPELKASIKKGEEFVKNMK
Assay: Counter-screen for inhibition of native MDH enzymatic activity
Assay type: biochemical, pig
Description: Reagent Preparations & Assay Protocol: This assay was performed as described above for the GroEL/ES-dMDH refolding assay; however, the assay protocol differed in the sequence of compound addition to the assay plates. The refolding reactions were allowed to proceed for 45 min at 37° C. in the absence of test compounds (complete refolding of MDH occurs), then quenched with the EDTA stock. Compounds were then pin-transferred into the plates after the EDTA quenching step; thus, compounds effects are only possible by inhibiting the fully-refolded MDH reporter substrate. […] A340 nm measurements were recorded at 0.5 minutes (start point) and at successive time points until the amount of NADH consumed reached ˜90% (end point, generally between 20-35 minutes). Compounds were tested in 8-point, 3-fold dilution series (62.5 μM to 29 nM during the reporter reaction) in clear, flat-bottom 384-well microtiter plates. DMSO was used as a negative control, and previously discovered native MDH inhibitors were used as positive controls. […] Results presented represent the averages of IC50 values obtained from at least quadriplicate (duplicate of duplicate) replicates.

## O=C(Nc1ccccc1)c1ccccc1 [Compound 28, N-Phenylbenzamide]
Biochemical Assay IC50 Native MDH Reporter
  pIC50: < 4.20
log(IC50) Native MDH Reporter, log of IC50 (μM scale), with standard deviation
  IC50: > 63.1 µM
